Source: patent publication US12011433B2 (UNIVERSITÁ DEGLI STUDI DI BARI “ALDO MORO”, priority 2016, dated 2024)

What was measured:
COX-2 [1] = target: COX-2 (Homo sapiens, UniProt P35354); experiment: colorimetric COX Inhibitor screening Assay (peroxidase component, oxidized TMPD at 590 nm); type: biochemical; conditions: at 50 μM, the highest concentration tested
Method: Human cyclooxygenase inhibitory activity was determined by a colorimetric COX Inhibitor screening Assay which measures the peroxidase component of the cyclooxygenases, monitoring the appearance of oxidized N,N,N′,N′-tetramethyl-p-phenylenediamine (TMPD) at 590 nm.

BV2 microglial cells = experiment: BV2 microglial cell viability, MTT reduction assay; type: cell-based; conditions: 24 h, P6 0.5 and 1 μM, mofezolac 0.1 and 0.5 μM, alone or with LPS
Method: (§1) Cells were then incubated for different times at 37° C. with LPS, as pro-inflammatory stimulus. Experiments included cells grown in medium alone (control).
Cell viability of microglial cells was quantified using the MTT reduction assay. The cells (8×10^3/well) were grown in 96-well plates (Becton Dickinson Labware) in complete medium and treated with different concentration of COX inhibitors, in presence or absence of LPS. Untreated cells were used as a control. A PBS 1× solution of MTT (5 mg/mL) was prepared and added to the cell medium at a final concentration of 0.5 mg/mL. Cells were incubated for 4 h at 37° C. and 5% CO2 to allow the MTT metabolism. The formazan crystals formed (from MTT) into the cells were solubilized with DMSO (Sigma-Aldrich). The levels of MTT formazan were determined measuring the optical density at λ=560 nm and subtracting the background (λ=670 nm) with a Victor Multiplate Reader (Wallac). Optical density was directly correlated to cell quantity.

Iba-1 = experiment: microglial activation in LPS-treated mice, Iba-1 immunoreactivity and immunoblotting; type: in vivo
Method: The protein concentration in the supernatant was spectrophotometrically determined by Bradford's protein assay (Bradford, 1976). […] Proteins (25 μg/lane) and prestained standards (BioRad Laboratories, Hercules, CA, USA) were loaded on 7% or 12% SDS precast polyacrylamide gels (BioRad Laboratories). After electrophoresis, the resolved proteins were transferred from the gel to nitrocellulose membranes. A blotting buffer [20 mMTris/150 mM glycine, pH=8.0, 20% (v/v) methanol] was used for gel and membrane saturation and blotting. […] Bands were visualized by chemiluminescence detection (Invitrogen, Milan, Italy). The β-actin level was used as a protein loading control. For tissue analysis, obtained bands were normalized to the level of β-actin performed for each cerebral area tested. For cell cultures the bands were normalized to the β-actin level in each experimental condition. […] VM in all the Figures) once a day for 10 days. […] On the seventh day, mice were anesthetized with tribromoethanol (250 mg/Kg, i.p.) and positioned in a stereotactic apparatus (Kopf Instruments, Tujunga, CA, USA). […] Immunohistochemistry was performed following a standard avidin-biotin complex procedure. […]

COX-1 = COX-1 (Mus musculus (Mouse), UniProt P22437); experiment: COX-1 expression in LPS-treated BV2 microglial cells, western blotting; type: cell-based
Method: as §1
(§2) The tissue and cell culture lysates were vortexed for 15-20 s and, then, centrifuged at 12,800×g for 20 min. The protein concentration in the supernatant was spectrophotometrically determined by Bradford's protein assay (Bradford, 1976). Protein samples were diluted with sample buffer (0.5 M Tris-HCl pH=6.8, 10% glycerol, 10% (w/v) SDS, 5% 2-mercaptoethanol, 0.05% (w/v) bromophenol blue) and then boiled for 3 min. Proteins (25 μg/lane) and prestained standards (BioRad Laboratories, Hercules, CA, USA) were loaded on 7% or 12% SDS precast polyacrylamide gels (BioRad Laboratories).
After electrophoresis, the resolved proteins were transferred from the gel to nitrocellulose membranes. A blotting buffer [20 mMTris/150 mM glycine, pH=8.0, 20% (v/v) methanol] was used for gel and membrane saturation and blotting. Then, membranes were incubated in the dark with 1 μg/mL mouse monoclonal antibody (MoAb) anti-COX-1 and rabbit polyclonal Ab anti-COX-2 (1:1000) (both from AbCam, Cambridge, UK), rabbit polyclonal Ab anti p-IkB-α (1:200), mouse polyclonal Ab anti β-actin (1:500) (all from Santa Cruz Biotechnology), mouse MoAb anti-glial fibrillary acidic protein (GFAP) (1:200) and mouse mAb anti-ionized calcium-binding adapter molecule-1 (Iba-1) (1:200) (both from Merck Millipore) overnight at 4° C. The membranes were washed with 0.1% Tween 20-PBS (for 20 min, 3 times) and then incubated with the secondary antibody diluted 1:2000 for 60 min. Bands were visualized by chemiluminescence detection (Invitrogen, Milan, Italy). The β-actin level was used as a protein loading control. For tissue analysis, obtained bands were normalized to the level of β-actin performed for each cerebral area tested. For cell cultures the bands were normalized to the β-actin level in each experimental condition.

COX-2 [2] = target: COX-2 (Mus musculus (Mouse), UniProt Q05769); experiment: COX-2 expression in LPS-treated BV2 microglial cells, western blotting; type: cell-based; conditions: LPS-stimulated BV2 cells
Method: as §1, §2
After electrophoresis, the resolved proteins were transferred from the gel to nitrocellulose membranes. A blotting buffer [20 mMTris/150 mM glycine, pH=8.0, 20% (v/v) methanol] was used for gel and membrane saturation and blotting. […]

PGE2 = PGE2 release in LPS-stimulated BV2 microglial cells, competitive binding immunoassay; type: cell-based; conditions: for PGE2 release (ng/ml) at 48 h: LPS-stimulated BV2 cells; for PGE2 production reduction: LPS-treated BV2 cells
Method: Microglial cells were cultured in 6-well plates at a density of 3×10^6 cells/well. […] The cultures were maintained at 37° C. for 24 and 48 h in a humidified air containing a 5% CO2. PGE2 levels were determined in the supernatant using a competitive binding immunoassay (Cayman Chemical, Ann Arbor, MI, USA) following the manufacturer's instructions. Unstimulated cells were included as a control. PGE2 amount determination in the brain was performed in the tissue extracts, according to the manufacturer's instructions. The optical density was measured at λ=405-420 nm with precision microplate reader and the amount of PGE2 (ng/mL) was calculated using a PGE2 standard curve.

COX-2 (Homo sapiens, UniProt P35354), sequence (P35354 18-604 limits assumed): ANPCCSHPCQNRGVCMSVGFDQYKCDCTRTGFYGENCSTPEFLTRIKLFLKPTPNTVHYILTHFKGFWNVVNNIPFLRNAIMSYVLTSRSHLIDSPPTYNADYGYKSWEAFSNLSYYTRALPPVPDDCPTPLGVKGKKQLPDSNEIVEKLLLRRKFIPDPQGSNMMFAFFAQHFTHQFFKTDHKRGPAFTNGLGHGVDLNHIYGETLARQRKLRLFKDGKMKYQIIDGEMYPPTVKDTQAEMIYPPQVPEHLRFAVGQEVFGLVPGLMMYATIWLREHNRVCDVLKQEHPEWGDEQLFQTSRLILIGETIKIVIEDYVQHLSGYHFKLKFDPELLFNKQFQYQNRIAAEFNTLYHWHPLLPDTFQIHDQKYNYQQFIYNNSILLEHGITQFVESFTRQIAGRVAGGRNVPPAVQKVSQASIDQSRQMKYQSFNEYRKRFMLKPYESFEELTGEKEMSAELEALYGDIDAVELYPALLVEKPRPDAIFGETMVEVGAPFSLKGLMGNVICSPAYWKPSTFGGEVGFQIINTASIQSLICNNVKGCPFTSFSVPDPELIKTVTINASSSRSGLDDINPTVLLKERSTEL

## COc1ccc(-c2noc(CC(=O)O)c2-c2ccc(OC)cc2)cc1 [mofezolac, 2-(3,4-bis(4-methoxyphenyl)isoxazol-5-yl)acetic acid]
COX-2 [1]
  inhibition at 50 µM: 38%
BV2 microglial cells
  cell toxicity: No cell toxicity
Iba-1; immunoblotting, mofezolac + LPS vs LPS alone
  Iba-1 levels: significantly reduced
Iba-1; immunohistochemistry, LPS-injected mice, mofezolac 6 mg/kg i.p., all the tested brain areas
  Iba-1 immunoreactivity: reduction of Iba-1 immunoreactivity
COX-1; BV2 cells, 48 h of incubation with LPS, 1 h pre-treated
  COX-1 expression levels: significantly reduced
COX-1; LPS-activated BV2 cells, independently from its concentration (0.1 and 0.5 μM)
  COX-1 expression reduction: 78%
COX-2 [2]
  COX-2 protein levels: unaffected
PGE2; 0.1 μM inhibitor + LPS
  PGE2 release (ng/ml) at 48 h: 0.06 ng/mL
PGE2; 0.5 μM inhibitor + LPS
  PGE2 release (ng/ml) at 48 h: 0.03 ng/mL
PGE2; at 0.5 μM as printed in the text
  PGE2 production reduction: 94%
PGE2; at 1 μM as printed in the text
  PGE2 production reduction: 97%
